From PubChem BioAssay AID2060910 (Molecular Pharmacology Branch, DTP, NCI, 2025)

System: 242566-281-R-J2-PDC complex spheroid viability
Assay: Anticancer human tumor 242566-281-R-J2-PDC patient-derived pancreatic carcinoma cell line growth inhibition [RAS]
Conditions: for IC50: curve of first compound; for viability, T/C: stronger effect = lower value
Summary of the method: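 Multi-cell-type spheroids: tumor cells plus HUVEC endothelial cells and mesenchymal stem cells. RAS-pathway inhibitors were combined with targeted agents, each dosed in half-log steps down from clinical Cmax, or from 10 microM when Cmax was unknown.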

[1] = second compound 0.00316 µM, first compound 0.0316 µM
[2] = second compound 0.00316 µM, first compound 0.1 µM
[3] = second compound 0.00316 µM, first compound 0.316 µM
[4] = second compound 0.00316 µM, first compound 1 µM
[5] = second compound 0.00316 µM, first compound 3.16 µM
[6] = second compound 0.00316 µM, first compound 10 µM
[7] = second compound 0.01 µM, first compound 0.0316 µM
[8] = second compound 0.01 µM, first compound 0.1 µM
[9] = second compound 0.01 µM, first compound 0.316 µM
[10] = second compound 0.01 µM, first compound 1 µM
[11] = second compound 0.01 µM, first compound 3.16 µM
[12] = second compound 0.01 µM, first compound 10 µM
[13] = second compound 0.0316 µM, first compound 0.0316 µM
[14] = second compound 0.0316 µM, first compound 0.1 µM
[15] = second compound 0.0316 µM, first compound 0.316 µM
[16] = second compound 0.0316 µM, first compound 1 µM
[17] = second compound 0.0316 µM, first compound 3.16 µM
[18] = second compound 0.0316 µM, first compound 10 µM
[19] = second compound 0.1 µM, first compound 0.0316 µM
[20] = second compound 0.1 µM, first compound 0.1 µM
[21] = second compound 0.1 µM, first compound 0.316 µM
[22] = second compound 0.1 µM, first compound 1 µM
[23] = second compound 0.1 µM, first compound 3.16 µM
[24] = second compound 0.1 µM, first compound 10 µM
[25] = second compound 0.316 µM, first compound 0.0316 µM
[26] = second compound 0.316 µM, first compound 0.1 µM
[27] = second compound 0.316 µM, first compound 0.316 µM
[28] = second compound 0.316 µM, first compound 1 µM
[29] = second compound 0.316 µM, first compound 3.16 µM
[30] = second compound 0.316 µM, first compound 10 µM
[31] = second compound 1 µM, first compound 0.0316 µM
[32] = second compound 1 µM, first compound 0.1 µM
[33] = second compound 1 µM, first compound 0.316 µM
[34] = second compound 1 µM, first compound 1 µM
[35] = second compound 1 µM, first compound 3.16 µM
[36] = second compound 1 µM, first compound 10 µM
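Note: spheroids exposed to compound for 7 days before readout.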
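Throughout, for viability, T/C: 100% = DMSO vehicle control wells.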

Work on `CC(=O)OC12COC1CC(O)C1(C)C(=O)C(O)C3=C(C)C(OC(=O)C(O)C(NC(=O)OC(C)(C)C)c4ccccc4)CC(O)(C(OC(=O)c4ccccc4)C21)C3(C)C` (centres undefined) + C=CC(=O)N1CCN(c2nc(OCC3CCCN3C)nc3c(F)c(-c4nc(N)cc(C)c4C(F)(F)F)c(Cl)cc23)C(C)C1 yielded an IC50 (second compound 0.00316 µM) of less than 0.0316 µM, an IC50 (second compound 0.01 µM) of 0.237 µM and an IC50 (second compound 0.0316 µM) of 0.122 µM. The IC50 (second compound 0.1 µM) was greater than 10 µM, the IC50 (second compound 0.316 µM) was greater than 10 µM and the IC50 (second compound 1 µM) was less than 0.0316 µM. The viability, T/C [1] was 52.6%, the viability, T/C [2] was 53.8% and the viability, T/C [3] was 50.5%. For the same compound, the viability, T/C [4] was 35.5%, the viability, T/C [5] was 54.5% and the viability, T/C [6] was 69.3%. The viability, T/C [7] was 71.5%, the viability, T/C [8] was 53% and the viability, T/C [9] was 42.2%. For the same compound, the viability, T/C [10] was 41.8%, the viability, T/C [11] was 45.2% and the viability, T/C [12] was 66.8%. For the same compound, the viability, T/C [13] was 80.4%, the viability, T/C [14] was 51.9% and the viability, T/C [15] was 39.3%. For the same compound, the viability, T/C [16] was 35.6%, the viability, T/C [17] was 48.5% and the viability, T/C [18] was 66.5%. The viability, T/C [19] was 61.1%, the viability, T/C [20] was 51.4% and the viability, T/C [21] was 47.6%. For the same compound, the viability, T/C [22] was 37.9%, the viability, T/C [23] was 46.5% and the viability, T/C [24] was 68.2%. It also gave a viability, T/C [25] of 64.9%, a viability, T/C [26] of 52.1% and a viability, T/C [27] of 37%. For the same compound, the viability, T/C [28] was 49.3%, the viability, T/C [29] was 55.7% and the viability, T/C [30] was 71.4%. For the same compound, the viability, T/C [31] was 52.7%, the viability, T/C [32] was 51.1% and the viability, T/C [33] was 44.8%. It also gave a viability, T/C [34] of 42.8%, a viability, T/C [35] of 50.9% and a viability, T/C [36] of 65.7%.
Work on `CCC(CC)c1cc(NC2CCC(N)C2)n2nccc2n1` (centres undefined) + C=CC(=O)N1CCN(c2nc(OCC3CCCN3C)nc3c(F)c(-c4nc(N)cc(C)c4C(F)(F)F)c(Cl)cc23)C(C)C1 yielded an IC50 (second compound 0.00316 µM) of 4.59 µM, an IC50 (second compound 0.01 µM) of 4.42 µM and an IC50 (second compound 0.0316 µM) of 3.74 µM. It also gave an IC50 (second compound 0.1 µM) of 4.54 µM, an IC50 (second compound 0.316 µM) of 3.76 µM and an IC50 (second compound 1 µM) of 4.55 µM. It also gave a viability, T/C [1] of 108%, a viability, T/C [2] of 141% and a viability, T/C [3] of 94.3%. It also gave a viability, T/C [4] of 109%, a viability, T/C [5] of 72.6% and a viability, T/C [6] of 1.71%. It also gave a viability, T/C [7] of 121%, a viability, T/C [8] of 146% and a viability, T/C [9] of 108%. The viability, T/C [10] was 100%, the viability, T/C [11] was 72.8% and the viability, T/C [12] was 1.81%. It also gave a viability, T/C [13] of 129%, a viability, T/C [14] of 123% and a viability, T/C [15] of 97.1%. For the same compound, the viability, T/C [16] was 98%, the viability, T/C [17] was 58.3% and the viability, T/C [18] was 1.98%. The viability, T/C [19] was 137%, the viability, T/C [20] was 129% and the viability, T/C [21] was 106%. It also gave a viability, T/C [22] of 96.5%, a viability, T/C [23] of 82.5% and a viability, T/C [24] of 1.56%. For the same compound, the viability, T/C [25] was 149%, the viability, T/C [26] was 124% and the viability, T/C [27] was 99.3%. For the same compound, the viability, T/C [28] was 102%, the viability, T/C [29] was 62.8% and the viability, T/C [30] was 1.81%. The viability, T/C [31] was 125%, the viability, T/C [32] was 156% and the viability, T/C [33] was 82.7%. It also gave a viability, T/C [34] of 115%, a viability, T/C [35] of 75% and a viability, T/C [36] of 1.22%.
